Patent publication US20250002487A1, “HETEROCYCLIC COMPOUNDS AND USES THEREOF” (Ventus Therapeutics U.S., Inc., priority 2021, published 2025)

Target: human-cGAS (h-cGAS) (Homo sapiens, UniProt Q8N884)
Experiment: hcGAS Kinase-Glo Assay
Format: biochemical
Conditions: 40 nM h-cGAS, 100 μM ATP, 100 μM GTP, 25 nM dsDNA, 3 h incubation, read-out: hcGAS potency IC50
Method: In some embodiments, the compounds of the instant disclosure may be tested for their human-cGAS (h-cGAS) inhibition activity using the methodology reported in Lama et al., “Development of human cGAS-specific small molecule inhibitors for repression of double stranded DNA (dsDNA)-triggered interferon expression”, Nature Communications 10, Article number: 2261 (2019), incorporated herein by reference. hcGAS Kinase-Glo Assay Compounds were tested for their human-cGAS (h-cGAS) inhibition activity using the methodology reported in Lama et al., “Development of human cGAS-specific small molecule inhibitors for repression of double stranded DNA (dsDNA)-triggered interferon expression”, Nature Communications 10. Article number: 2261 (2019), which is herein incorporated by reference in its entirety, with slight changes to some conditions as shown in Table B. The results of the assays, expressed in IC50 ranges are reported in Table C with the following designations: A represents an IC50 value <0.1 μM; B represents an IC50 value ≥0.1 μM and <0.5 μM; C represents an IC50 value ≥0.5 μM and <1.0 μM; D represents an IC50 value ≥1.0 μM. [table]

human-cGAS (h-cGAS), sequence (Q8N884 whole entry): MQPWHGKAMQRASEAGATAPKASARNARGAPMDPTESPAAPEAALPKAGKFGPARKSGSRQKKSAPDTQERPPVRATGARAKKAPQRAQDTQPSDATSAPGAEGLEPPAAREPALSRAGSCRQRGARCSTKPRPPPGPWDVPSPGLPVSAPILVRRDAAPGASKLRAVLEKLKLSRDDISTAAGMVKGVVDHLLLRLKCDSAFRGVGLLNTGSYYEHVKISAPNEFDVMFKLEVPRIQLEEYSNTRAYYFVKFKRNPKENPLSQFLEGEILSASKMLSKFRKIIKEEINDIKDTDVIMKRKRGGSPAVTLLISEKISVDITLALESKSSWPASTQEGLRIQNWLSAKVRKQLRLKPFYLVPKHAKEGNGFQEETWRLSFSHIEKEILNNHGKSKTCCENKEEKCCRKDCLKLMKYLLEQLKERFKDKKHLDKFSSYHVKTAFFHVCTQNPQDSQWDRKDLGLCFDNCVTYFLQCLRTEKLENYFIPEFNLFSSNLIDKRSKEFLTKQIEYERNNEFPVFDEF

O=C(Nc1nnc(-c2ccccc2Cl)s1)c1ccnc(=O)[nH]1 [Compound 62, N-(5-(2-chlorophenyl)-1,3,4-thiadiazol-2-yl)-2-oxo-2,3-dihydropyrimidine-4-carboxamide] and O=C(Nc1nnc(-c2ccccc2Cl)s1)c1n[nH]c(=O)[nH]1 [Compound 63, N-(5-(2-chlorophenyl)-1,3,4-thiadiazol-2-yl)-5-oxo-4,5-dihydro-1H-1,2,4-triazole-3-carboxamide] cannot be ordered by IC50: ≥ 1000 nM for the first, 500 to 1000 nM for the second.

Compared with O=C(Nc1nnc(-c2ccccc2Cl)s1)c1ccc(O)c(=O)o1 [Compound 64, N-(5-(2-chlorophenyl)-1,3,4-thiadiazol-2-yl)-3-hydroxy-2-oxo-2H-pyran-6-carboxamide], CNC(=O)c1cc(C(=O)Nc2nnc(-c3ccccc3Cl)s2)on1 [Compound 89, N5-(5-(2-chlorophenyl)-1,3,4-thiadiazol-2-yl)-N3-methylisoxazole-3,5-dicarboxamide] is higher in IC50: < 100 nM for the first, 500 to 1000 nM for the second. The first is the more potent here.

CSc1nnc(NC(=O)c2nc(-c3ccccc3)cs2)s1 [Compound 65, N-(5-(methylthio)-1,3,4-thiadiazol-2-yl)-4-phenylthiazole-2-carboxamide] and CSc1nnc(NC(=O)c2onc3ccccc23)s1 [Compound 79, N-(5-(methylthio)-1,3,4-thiadiazol-2-yl)benzo[c]isoxazole-3-carboxamide] cannot be ordered by IC50: ≥ 1000 nM for the first, 500 to 1000 nM for the second.

CSc1nnc(NC(=O)c2nnn(-c3ccccc3)n2)s1 [Compound 66, N-(5-(methylthio)-1,3,4-thiadiazol-2-yl)-2-phenyl-2H-tetrazole-5-carboxamide] and CSc1nnc(NC(=O)c2nnc(N3CCC3c3ccccc3)o2)s1 (stereo not shown) [Compound 74, N-(5-(methylthio)-1,3,4-thiadiazol-2-yl)-5-(2-phenylazetidin-1-yl)-1,3,4-oxadiazole-2-carboxamide] cannot be ordered by IC50: 500 to 1000 nM for the first, ≥ 1000 nM for the second.

CSc1nnc(NC(=O)c2onc3c2CCCC3)s1 [Compound 67, N-(5-(methylthio)-1,3,4-thiadiazol-2-yl)-4,5,6,7-tetrahydrobenzo[c]isoxazole-3-carboxamide] and CSc1nnc(NC(=O)c2cc(C3CCCC3)no2)s1 [Compound 85, 3-cyclopentyl-N-(5-(methylthio)-1,3,4-thiadiazol-2-yl)isoxazole-5-carboxamide] fall in the same range of IC50: 500 to 1000 nM for the first, 500 to 1000 nM for the second.

CSc1nnc(NC(=O)c2cc(-c3cccc4c3CCC4)no2)s1 [Compound 68, 3-(2,3-dihydro-1H-inden-4-yl)-N-(5-(methylthio)-1,3,4-thiadiazol-2-yl)isoxazole-5-carboxamide] and CSc1nnc(NC(=O)c2cc(-c3cccs3)no2)s1 [Compound 75, N-(5-(methylthio)-1,3,4-thiadiazol-2-yl)-3-(thiophen-2-yl)isoxazole-5-carboxamide] fall in the same range of IC50: 500 to 1000 nM for the first, 500 to 1000 nM for the second.

CCc1nnc(NC(=O)c2onc3ccccc23)s1 [Compound 69, N-(5-ethyl-1,3,4-thiadiazol-2-yl)benzo[c]isoxazole-3-carboxamide] and Cc1nnc(NC(=O)c2onc3ccccc23)s1 [Compound 81, N-(5-methyl-1,3,4-thiadiazol-2-yl)benzo[c]isoxazole-3-carboxamide] cannot be ordered by IC50: 500 to 1000 nM for the first, ≥ 1000 nM for the second.

First: CCSc1nnc(NC(=O)c2onc3ccccc23)s1 [Compound 70, N-(5-(ethylthio)-1,3,4-thiadiazol-2-yl)benzo[c]isoxazole-3-carboxamide]
Second: CSc1nnc(NC(=O)c2onc3c2ccc2cccnc23)s1 [Compound 94, N-(5-(methylthio)-1,3,4-thiadiazol-2-yl)isoxazolo[4,3-h]quinoline-3-carboxamide]
The IC50 of the first is higher: ≥ 1000 nM for the first, 100 to 500 nM for the second. The second is the more potent here.

CSc1nnc(NC(=O)c2nc(-c3cnccn3)no2)s1 [Compound 71, N-(5-(methylthio)-1,3,4-thiadiazol-2-yl)-3-(pyrazin-2-yl)-1,2,4-oxadiazole-5-carboxamide] and CSc1nnc(NC(=O)c2cncc(-c3ccccn3)c2)s1 [Compound 72, N-(5-(methylthio)-1,3,4-thiadiazol-2-yl)-[2,3′-bipyridine]-5′-carboxamide] cannot be ordered by IC50: 500 to 1000 nM for the first, ≥ 1000 nM for the second.

CSc1nnc(NC(=O)c2cnc(-c3cccs3)s2)s1 [Compound 76, N-(5-(methylthio)-1,3,4-thiadiazol-2-yl)-2-(thiophen-2-yl)thiazole-5-carboxamide] and CSc1nnc(NC(=O)c2cncc(-c3cccs3)c2)s1 [Compound 96, N-(5-(methylthio)-1,3,4-thiadiazol-2-yl)-5-(thiophen-2-yl)-nicotinamide] cannot be ordered by IC50: ≥ 1000 nM for the first, 500 to 1000 nM for the second.

CSc1nnc(NC(=O)c2nc(-c3cccs3)oc2C)s1 [Compound 77, 5-methyl-N-(5-(methylthio)-1,3,4-thiadiazol-2-yl)-2-(thiophen-2-yl)oxazole-4-carboxamide] and CSc1nnc(NC(=O)c2cc(-c3ccc(Cl)s3)on2)s1 [Compound 95, 5-(5-chlorothiophen-2-yl)-N-(5-(methylthio)-1,3,4-thiadiazol-2-yl)isoxazole-3-carboxamide] cannot be ordered by IC50: ≥ 1000 nM for the first, 500 to 1000 nM for the second.

CSc1nnc(NC(=O)c2cc3c(C)cc(F)cc3[nH]2)s1 [Compound 78, 6-fluoro-4-methyl-N-(5-(methylthio)-1,3,4-thiadiazol-2-yl)-1H-indole-2-carboxamide] and CSc1nnc(NC(=O)c2cc(C(C)C)no2)s1 [Compound 82, 3-isopropyl-N-(5-(methylthio)-1,3,4-thiadiazol-2-yl)isoxazole-5-carboxamide] fall in the same range of IC50: 500 to 1000 nM for the first, 500 to 1000 nM for the second.

CSc1nnc(NC(=O)c2cc(C3CCOCC3)no2)s1 [Compound 80, N-(5-(methylthio)-1,3,4-thiadiazol-2-yl)-3-(tetrahydro-2H-pyran-4-yl)isoxazole-5-carboxamide] and CSc1nnc(NC(=O)c2cc(C3CCC3)no2)s1 [Compound 86, 3-cyclobutyl-N-(5-(methylthio)-1,3,4-thiadiazol-2-yl)isoxazole-5-carboxamide] fall in the same range of IC50: 500 to 1000 nM for the first, 500 to 1000 nM for the second.

First: CSc1nnc(NC(=O)c2cc(-c3cccc(OC(F)(F)F)c3)no2)s1 [Compound 83, N-(5-(methylthio)-1,3,4-thiadiazol-2-yl)-3-(3-(trifluoromethoxy)phenyl)isoxazole-5-carboxamide]
Second: CSc1nnc(NC(=O)c2cc(C3CCCCC3)no2)s1 [Compound 84, 3-cyclohexyl-N-(5-(methylthio)-1,3,4-thiadiazol-2-yl)isoxazole-5-carboxamide]
The IC50 of the first is higher: ≥ 1000 nM for the first, 100 to 500 nM for the second.

Compared with CN(C)C(=O)c1cc(C(=O)Nc2nnc(-c3ccccc3Cl)s2)on1 [Compound 87, N5-(5-(2-chlorophenyl)-1,3,4-thiadiazol-2-yl)-N3,N3-dimethylisoxazole-3,5-dicarboxamide], O=C(NO)c1cc(C(=O)Nc2nnc(-c3ccccc3Cl)s2)on1 [Compound 90, N5-(5-(2-chlorophenyl)-1,3,4-thiadiazol-2-yl)-N3-hydroxyisoxazole-3,5-dicarboxamide] is lower in IC50: 500 to 1000 nM for the first, 100 to 500 nM for the second.

First: COCCNC(=O)c1cc(C(=O)Nc2nnc(-c3ccccc3Cl)s2)on1 [Compound 88, N5-(5-(2-chlorophenyl)-1,3,4-thiadiazol-2-yl)-N3-(2-methoxyethyl)isoxazole-3,5-dicarboxamide]
Second: CONC(=O)c1cc(C(=O)Nc2nnc(-c3ccccc3Cl)s2)on1 [Compound 91, N5-(5-(2-chlorophenyl)-1,3,4-thiadiazol-2-yl)-N3-methoxyisoxazole-3,5-dicarboxamide]
The IC50 of the first is higher: 500 to 1000 nM for the first, < 100 nM for the second.

First: O=C(Nc1ccccc1)c1cc(C(=O)Nc2nnc(-c3ccccc3Cl)s2)on1 [Compound 92, N5-(5-(2-chlorophenyl)-1,3,4-thiadiazol-2-yl)-N3-phenylisoxazole-3,5-dicarboxamide]
Second: Cc1nnc(NC(=O)c2onc3c2ccc2cccnc23)s1 [Compound 93, N-(5-methyl-1,3,4-thiadiazol-2-yl)isoxazolo[4,3-h]quinoline-3-carboxamide]
The IC50 of the first is lower: 100 to 500 nM for the first, 500 to 1000 nM for the second.

O=C(Nc1ccccc1Cl)c1nnn2ccc(=O)[nH]c12 [Compound 97, N-(2-chlorophenyl)-5-oxo-4H-[1,2,3]triazolo[1,5-a]pyrimidine-3-carboxamide] and CSc1nnc(NC(=O)c2noc(N3CCCC3c3ccccc3)n2)s1 (stereo not shown) [Compound 99, N-(5-(methylthio)-1,3,4-thiadiazol-2-yl)-5-(2-phenylpyrrolidin-1-yl)-1,2,4-oxadiazole-3-carboxamide] cannot be ordered by IC50: ≥ 1000 nM for the first, ≥ 1000 nM for the second.

CSc1nnc(NC(=O)c2nnc3n2CCN(C(=O)OC(C)(C)C)C3)s1 [Compound 98, tert-butyl 3-{[5-(methylsulfanyl)-1,3,4-thiadiazol-2-yl]carbamoyl}-5H,6H,8H-[1,2,4]triazolo[4,3-a]pyrazine-7-carboxylate] and CSc1nnc(NC(=O)c2noc(N3CCCC(C)(C)C3)n2)s1 [Compound 100, 5-(3,3-dimethylpiperidin-1-yl)-N-(5-(methylthio)-1,3,4-thiadiazol-2-yl)-1,2,4-oxadiazole-3-carboxamide] cannot be ordered by IC50: ≥ 1000 nM for the first, ≥ 1000 nM for the second.

CSc1nnc(NC(=O)c2noc(N3CCCCC3)n2)s1 [Compound 101, N-[5-(methylthio)-1,3,4-thiadiazol-2-yl]-5-(piperidin-1-yl)-1,2,4-oxadiazole-3-carboxamide] and CSc1nnc(NC(=O)c2noc(N3CCC(C)(C)CC3)n2)s1 [Compound 102, 5-(4,4-dimethylpiperidin-1-yl)-N-(5-(methylthio)-1,3,4-thiadiazol-2-yl)-1,2,4-oxadiazole-3-carboxamide] cannot be ordered by IC50: ≥ 1000 nM for the first, ≥ 1000 nM for the second.
